Here are results for one compound from US20110150976A1, “TRANSDERMAL DELIVERY OF OLIGOSACCHARIDES” (TRANSPHARMA MEDICAL LTD., priority 2008, published 2011).

Structures are written as SMILES. Like-named read-outs stand apart in the source and are kept apart here.

On the set-up of data set [1]: species or system pigs. To be noted: pig, in vivo. The procedure:
Transdermal delivery of fondaparinux from a printed patch through micro-channels generated in pig skin by the […] apparatus was evaluated. The experiment included the following groups: • 1. […] To prepare the printed patches containing fondaparinux, a concentrated reconstituted solution of Arixtra® (fondaparinux sodium) was applied onto the patch and then air-dried. Each patch was affixed to the […] treated skin for 24 hours.

On the set-up of data set [2]: species or system pigs. The settings on record: pig, in vivo. The method, then: Transdermal delivery of fondaparinux from a silicon pouch containing the pentasaccharide in solution through micro-channels generated in pig skin by the […] apparatus was evaluated. The experiment included the following groups: • 1.
The source holds these as a separate data set.

For data set [3] the following is noted: human; cited from earlier work.
A short description of data set [4]: Histological assessment of skin after micro-channel generation and treatment with fondaparinux. Type of data set: in vivo. The settings on record: pigs, 450 MCs/cm^2, dried patch 1.25 mg, biopsies 13 and 22.5 hours post application. The method, then:
Histological assessments were performed in order to determine the effect of application of a high concentration of fondaparinux to skin in which micro-channels have been generated. Pigs were treated with […] apparatus to generate micro-channels at a density of 450 MCs/cm^2 (burst length of 6000 μsec). […] All biopsies (8 mm diameter) were fixed in 4% formaldehyde buffer for at least 48 hrs followed by staining with eosin and hematoxylin (H&E).

Data set [5] can be described thus: In-vitro dissolution of printed patches. The data set is classed as physicochemical. To be noted: printed patches 5 mg fondaparinux with 3.6 mg NaCl, from lyophilized Arixtra.
Protocol: As the printed patches were prepared following lyophilization of the Arixtra® for injection, 5 mg fondaparinux in each patch contained 3.6 mg of NaCl (42% of the total patch solids).

In general, AUC refers to concentration integrated over time. A word on the Tmax: it is the time at which the peak concentration occurs. Broadly, the Cmax is the maximum level reached in the sampled fluid or tissue. Turning to `CO[C@H]1O[C@H](COS(=O)(=O)O)[C@@H](O[C@@H]2O[C@@H](C(=O)O)[C@@H](O[C@H]3O[C@H](COS(=O)(=O)O)[C@@H](O[C@@H]4O[C@H](C(=O)O)[C@@H](O[C@H]5O[C@H](COS(=O)(=O)O)[C@@H](O)[C@H](O)[C@H]5NS(=O)(=O)O)[C@H](O)[C@H]4O)[C@H](OS(=O)(=O)O)[C@H]3NS(=O)(=O)O)[C@H](O)[C@H]2OS(=O)(=O)O)[C@H](O)[C@H]1NS(=O)(=O)O` [fondaparinux], the “bioavailability from printed patches” value in data set [1] (5 mg) is reported as 11-17%. In data set [1] (sc, 1 mg), the “% BA (bioavailability)” value was 100%, the AUC is 291 1.25 ± 2242.07 ng*h/ml and the Tmax was 2 h. In data set [2] (sc, 1 mg), this compound returned an AUC of 1533.33 ± 1303.96 ng·h/mL and a Cmax of 235.72 ± 47.79 ng/mL. In data set [2] (topical or ocular, 28 mg), this compound displayed an AUC of 5659.33 ± 956.94 ng·h/mL and a Cmax of 709.74 ± 103.61 ng/mL. In data set [3], the half-life entry is reported as “approximately 17 hours”. Further, in data set [4], the “abnormalities in the skin tissue (histology, H&E)” value is reported as “no abnormalities” and the “signs of bleeding at the site of the treated skin (histology, H&E)” value was “no signs of bleeding”. In addition, the “in-vitro dissolution of printed patches” value in data set [5] is around 85%.
